Results reported in patent US20130072506A1, “6,8-DISUBSTITUTED PURINE COMPOSITIONS” (priority 2011, published 2013).

How the values were obtained:
[1] = test system: mitochondria of ASF-2 cells; assay: JC-1 staining of mitochondria; assay type: cell-based, human; conditions: 3 days pre-treatment of dermal fibroblasts
Protocol: All cell culture experiments were performed on early and mid passage cultures (about 20 to 40% lifespan completed) of normal human skin fibroblast line, designated ASF-2. In order to check the effects of test compounds on senescent cells, late passage cells with more than 90% lifespan completed were used. ASF-2 cell line was established from a mammary skin biopsy obtained from a young, non-smoking and healthy […] at the time of breast reduction operation. Normal culture conditions of medium (DMEM) containing antibiotics, 10% foetal calf serum, and incubation at 37° C. with 95% humidity were used. The effects of the test compounds were determined using the following procedures.
Briefly, stock solution of JC-1 (Sigma, M2128) was made at 1 mg/ml in dimethyl sulfoxide. Fresh staining solution […] was prepared by diluting the stock solution in warm (37° C.) culture medium supplemented with 10% calf serum (final conc. 1 μg/ml). Around 3000 cells/ml were seeded in 4 chambered flasks. After three days of incubation, medium is aspirated and one ml of JC-1 staining medium is added, after incubation for 10 mins a cover slip is quickly added and viewed under fluorescent microscope at excitation wavelengths of 488 and 647 nm. […] On depolarization, the orange red punctate staining is replaced by diffuse green monomer fluorescence.

SKH-1 hairless mice [2] = assay: Hairless mouse assay: erythema scoring (skin irritation); assay type: in vivo; set-up: key: 0: No response; 1: Very slight redness; 2: Slight redness; 3: Moderate redness/irritation; 4: Severe redness/irritation; 5: Very severe redness/irritation; 6: Necrosis; conditions: topical, daily, 1 to 3 weeks
Text: Evaluation of cutaneous effects of new topical compounds in the hirless mouse assay. The purpose of this study was to evaluate new topical compounds for their safety and efficacy as topical skin anti-aging treatments. The hairless mouse model is a well established model for studying the treatments of photoaging. This model has been used to study mechanisms, define effective treatment regimens and assess safety for retinoids and other anti-aging products. The present study was used to investigate a new class of anti-aging compounds in comparison to classical ones. Recent clinical studies have shown that this class of compounds improve the appearance of photodamaged skin and decrease transepidermal water loss (TEWL) without causing skin irritation. This study investigated the mechanisms of how these compounds affect the skin aging process and help to identify new compounds which are safe and effective for preventing and improving the clinical features of photoaged skin. Topical compounds and vehicle controls were be applied daily (Monday-Friday) for 3 weeks to the dorsal skin of hairless mice. At baseline (prior to the 1st treatment), and weekly, the dorsal skin was measured for: transepidermal water loss (TEWL); skin moisture content; and skin elasticity.
Experimental Design. […]
Technical staff recorded erythema scores for all animals each morning. […]

SKH-1 hairless mice [3] = assay: Hairless mouse assay: skin moisture content; assay type: in vivo; conditions: course over 3 weeks of topical treatment
Text: Evaluation of cutaneous effects of new topical compounds in the hirless mouse assay. The purpose of this study was to evaluate new topical compounds for their safety and efficacy as topical skin anti-aging treatments. The hairless mouse model is a well established model for studying the treatments of photoaging. […] The present study was used to investigate a new class of anti-aging compounds in comparison to classical ones. […] Topical compounds and vehicle controls were be applied daily (Monday-Friday) for 3 weeks to the dorsal skin of hairless mice. At baseline (prior to the 1st treatment), and weekly, the dorsal skin was measured for: transepidermal water loss (TEWL); skin moisture content; and skin elasticity.
(§1) Experimental Design. 48 female SKH-1 hairless mice (5 weeks old, 20-25 grams, Charles River Laboratories, Wilmington, Mass.) are individually housed in filter-top cages, and acclimated for 5-7 days after delivery. The mice are divided into 8 treatment groups (n=6), including two different control groups (untreated control, vehicle control) and a therapeutic control (tretinoin 0.05% Renova™ cream). Cage cards are marked to indicate treatment groups 1-8. Water and mouse chow are provided ad libitum.
Skin Moisture Content & Elasticity. The measurements of skin moisture content and skin elasticity are important noninvasive methods used to characterize the effects of moisturizers and anti-wrinkle effects on skin. A DermaLab™ combination instrument were used to measure the skin moisture content and elasticity of the target skin sites at baseline and at weekly intervals. This instrument is equipped with dual probes which are placed on the skin surface and a quantitative measurement taken of the respective parameters and the measurements recorded on an integrated computer. Mean measurements was determined for each treatment group over time, and comparative statistics used to evaluate product effectiveness.
(§2) Topical Treatments. Beginning on Treatment Day 1, test products are applied topically each morning (Monday through Friday) after erythema evaluations for 3 weeks. Using a positive displacement pipette, 20 mg of each agent is applied to a 2 cm×2 cm area of the center midline of the back. The material was spread across the treatment area with the pipette tip.

SKH-1 hairless mice [4] = assay: Hairless mouse assay: epidermal bromodeoxyuridine (BrdU) staining; assay type: in vivo; conditions: after 3 weeks of topical treatment
Text: This study determined the effect of topical compound formulations on epidermal cell proliferation using bromodeoxyuridine as an immunohistochemical marker of cell proliferation. Histological examination of the treated and control skin were used to determine cutaneous effects of the topical compounds. Topical tretinoin 0.05% (Renova™) was used as a therapeutic control.
as §1, §2
Bromodeoxyuridine Injection. All animal groups are injected with bromodeoxyuridine (100 mg/kg) I.P. 4 hours after the final application. Animals are sacrificed by CO2 inhalation 3 hours later followed by cervical dislocation. The test sites are excised, and 6 mm punch biopsies are obtained from each treatment site, and from untreated controls. Biopsies are placed into labeled vials containing 4% neutral buffered formalin for paraffin embedding and anti-BrdU staining.
Bromodeoxyuridine Immunohistochemical Staining. Paraffin sections are cut to a […] thickness and stained using the BrdU Immuno-histochemistry kit (X1545K from Exalpha Biologicals, Inc.) and a standard staining protocol. The slides are weakly counterstained in Mayer's hematoxylin and scored under a light microscope for the number of BrdU-positive cells per mm of epidermis for each section. The data are expressed as mean BrdU-positive cells/mm for each treatment group. Differences in BrdU labeling in the treatment groups are statistically analyzed using the Students t-test. Representative photographs are taken of the histological sections of the BrdU-positive staining cells.

SKH-1 hairless mice [5] = assay: Hairless mouse assay: skin histology and skin compartment measurements; assay type: in vivo; conditions: after 3 weeks of treatment
Text: as §1, §2
Skin Histology. Skin biopsies are taken of each treatment site and untreated control skin. Biopsies are fixed in 4% neutral buffered formalin, embedded in paraffin, and stained with hematoxylin and eosin. The stained skin sections are examined to determine the effects of the treatment on epidermal, dermal, and stratum corneum histology. Biopsies are also microscopically examined for inflammatory cells.
Skin Compartment Measurements. The H&E stained biopsy slides were imaged using a trinocular Olympus BH-2 microscope fitted with a Microfire 2.1×3 Digital Camera. 100× images were digitized and stored on CD using MS Pictureframe and Microfire Software. All compartment images were measured using a calibrated micrometer. An average of three measurements of each compartment for two slide images per biopsy was obtained and tabulated, and means and standard deviations were calculated.

[6] = clinical experience / previous clinical studies; cited from earlier work

Row | SMILES | JC-1 staining [1] | Erythema score (Grade) (SKH-1 hairless mice [2]) | skin moisture content (skin conductance) (SKH-1 hairless mice [3]) | epidermal BrdU staining (SKH-1 hairless mice [4]) | skin compartment thickness (SKH-1 hairless mice [5]; H&E stained biopsies) | histological evaluation of skin biopsies (SKH-1 hairless mice [5]) | TEWL [6]
1 | CN[C@@H]1C[C@H]2O[C@@](C)([C@@H]1OC)n1c3ccccc3c3c4c(c5c6ccccc6n2c5c31)C(=O)NC4 [staurosporine, reference compound] | drastically reduced the uptake of JC-1 and J-aggregate formation | – | – | – | – | – | –
2 | CC1=C(/C=C/C(C)=C/C=C/C(C)=C/C(=O)O)C(C)(C)CCC1 [tretinoin] | – | 3 | significant decrease | no epidermal BrdU staining | increased both epidermal and dermal thickness | marked increased thickness of the epidermis and inflammatory changes in the dermis | increase in TEWL
